Data from US20180153995A1, “USE OF ANTIMICROBIAL POLYMERS FOR RE-SENSITIZATION OF MICROORGANISMS UPON EMERGENCE OF RESISTANCE TO ANTI-MICROBIAL AGENTS” (Technion Research & Development Foundation Limited, priority 2008, published 2018).
Read-outs that look alike come from different tables or passages of the source.

Key:
S. aureus 17314 = test: Antibiotic MIC by microdilution with or without sub-MIC polymer; assay type: cell-based, Staphylococcus aureus
P. aeruginosa 8732 = test: as above; assay type: cell-based, Pseudomonas aeruginosa
Experimental: (§1) MICs were determined by microdilution susceptibility testing in 96-well plates (by Nunc) using inocula of 10^5 bacteria per ml. Cell populations were evaluated by optical density measurements at 620 nm and were calibrated against a set of standards. Hundred (100) μl of a bacterial suspension were added to 100 μl of culture medium (control) or to 100 μl of culture medium containing various polymer concentrations in 2-fold serial dilutions. Inhibition of proliferation was determined by optical density measurements at 620 nm after an incubation period of 24 hours at 37° C.
Inhibition of proliferation was determined by optical density measurements at 620 nm after an incubation period of 24 hours at 37° C.

E. coli 14182 = test: as above; assay type: cell-based, Escherichia coli; conditions: for Antibiotic MIC in presence of C12K(NC8K)7NH2 (SEQ ID NO: 4), +½ MIC: polymer at ½ of its MIC
MRSA 15852 = assay type: cell-based, Staphylococcus aureus; conditions: S. aureus 15852
Experimental: The fractionary inhibitory (FIC) concentration index for combinations of two antimicrobial agents was calculated as follows: FIC index=FICA+FICB=A/MICA+B/MICB where A and B are the MIC values of agent A and agent B in the combination, MICA and MICB are the MICs of agent A and agent B alone, and FICA and FICB are the FICs of agent A and agent B.
The FIC indexes were interpreted as follows: less than 0.5 indicates a clear re-sensitizing effect; from 0.5 to 4 indicates a marginal or null re-sensitizing effect; and over 4 indicates antagonism.

E. coli AG100 = test: Antibiotic MIC with or without sub-MIC polymer (Tables 20, 21); assay type: cell-based, Escherichia coli
MRSA 15903 = test: Sub-MIC time-kill curves (CFU counts); assay type: cell-based, Staphylococcus aureus
Experimental: At the specified time points of incubation (37° C. under shaking), cultures were subjected to serial 10-fold dilutions (up to 10^6) by adding 50 μl of sample to 450 μl saline (0.85% NaCl). Cell counts were determined using the drop plate method (three 20-μl drops onto LB-agar plates). Plates were incubated at 37° C. and colonies were counted for the calculation after incubation for 24 hours.

E. coli AG100/ks = test: Antibiotic MIC with or without sub-MIC polymer (Tables 20, 21); assay type: cell-based, Escherichia coli
S. aureus 43300 = test: Antibiotic MIC by microdilution with or without sub-MIC polymer; assay type: cell-based, Staphylococcus aureus
Experimental: as §1
Table 8 below presents the MIC values of antibiotics in presence or absence of C12(5-ene)KKNC12KNH2 (SEQ ID NO: 2) at sub-MIC levels of the polymer, as measured for the S. aureus strains 43300 (ATCC), 15819 (clinical isolate), 15877 (clinical isolate) and 15852 (clinical isolate). MICs were determined by microdilution susceptibility testing in 96-well plates (Nunc) using inocula of 10^5 bacteria per ml. One hundred (100) μl of a bacterial suspension were added to 100 μl of culture medium (control) or to 100 μl of culture medium containing various antibiotic and C12(5-ene)KKNC12KNH2 (SEQ ID NO: 2) concentrations in 2-fold serial dilutions. Inhibition of proliferation was determined by optical density measurements at 620 nm after an incubation period of 24 hours at 37° C.
(§2) 100 μl of a bacterial suspension were added to 100 μl of culture medium (control) or to 100 μl of culture medium containing various antibiotic and C14(9-ene)KKNC12KNH2 (SEQ ID NO: 5) concentrations in 2-fold serial dilutions. Inhibition of proliferation was determined by optical density measurements at 620 nm after an incubation period of 24 hours at 37° C.

P. mirabilis 1285 [1] = assay type: cell-based, Proteus mirabilis
P. mirabilis 1285 [2] = assay type: cell-based, Proteus mirabilis; conditions: no polymer (None), Table 12
Experimental: as §1, §2

[3] = S. aureus 17314, +½ MIC (3.12 μM) C16(9-ene)KKNC12KNH2
[4] = P. aeruginosa 8732, +½ MIC (3.12 μM) C16(9-ene)KKNC12KNH2
[5] = P. aeruginosa 8732, +⅓ MIC (2.1 μM) C16(9-ene)KKNC12KNH2
[6] = P. aeruginosa 8732, no polymer (None), Table 10
[7] = +¼ MIC (1.6 μM) C14(9-ene)KKNC12KNH2
[8] = +½ MIC (3.12 μM) C14(9-ene)KKNC12KNH2
[9] = +⅓ MIC (2.1 μM) C14(9-ene)KKNC12KNH2

In the case of `Cc1onc(-c2ccccc2)c1C(=O)N[C@@H]1C(=O)N2[C@@H]1SC(C)(C)[C@@H]2C(=O)O` [Oxacillin, oxacillin], the “Antibiotic MIC” value (S. aureus 17314) is reported as 0.125 to 0.25 µg/mL, the “Antibiotic MIC” value (S. aureus 17314; S. aureus 17314, +¼ MIC (1.6 μM) C12K(KNC12K)2NH2) is reported as 0.125 to 0.25 µg/mL and the “Antibiotic MIC” value (S. aureus 17314; S. aureus 17314, +¼ MIC (1.6 μM) C12KKNC12KNH2) is reported as 0.25 µg/mL. For the same compound, the “Antibiotic MIC” value (S. aureus 17314; S. aureus 17314, +¼ MIC (1.6 μM) C16(9-ene)KKNC12KNH2) was 0.25 µg/mL, the “Antibiotic MIC” value (S. aureus 17314; S. aureus 17314, +½ MIC (3.12 μM) C12K(KNC12K)2NH2) was 0.125 to 0.25 µg/mL and the “Antibiotic MIC” value (S. aureus 17314; S. aureus 17314, +½ MIC (3.12 μM) C12KKNC12KNH2) was 0.25 µg/mL. For the same compound, the “Antibiotic MIC” value (S. aureus 17314; [3]) was 0.06 µg/mL, the “Antibiotic MIC” value (S. aureus 17314; S. aureus 17314, +⅓ MIC (2.1 μM) C12K(KNC12K)2NH2) was 0.125 to 0.25 µg/mL and the “Antibiotic MIC” value (S. aureus 17314; S. aureus 17314, +⅓ MIC (2.1 μM) C12KKNC12KNH2) was 0.25 µg/mL. The “Antibiotic MIC” value (S. aureus 17314; S. aureus 17314, +⅓ MIC (2.1 μM) C16(9-ene)KKNC12KNH2) was 0.25 µg/mL, the “Antibiotic MIC” value (S. aureus 17314; S. aureus 17314, no polymer (None), Table 9) was 0.25 µg/mL and the “Antibiotic MIC” value (S. aureus 17314; S. aureus 17314, no polymer (None), Table 10) was 0.25 to 0.5 µg/mL. For the same compound, the “Antibiotic MIC” value (S. aureus 17314; S. aureus 17314, no polymer (None), Table 11) was 0.25 µg/mL, the “Antibiotic MIC” value (S. aureus 17314; S. aureus 17314, no polymer (None), Table 12) was 0.25 µg/mL and the “Antibiotic MIC” value (P. aeruginosa 8732) was >512 µg/mL. The “Antibiotic MIC” value (P. aeruginosa 8732; [4]) was >512 µg/mL, the “Antibiotic MIC” value (P. aeruginosa 8732; [5]) was >512 µg/mL and the “Antibiotic MIC” value (P. aeruginosa 8732; [6]) was >512 µg/mL. For the same compound, the “Antibiotic MIC” value (E. coli 14182; +½ MIC C12K(NC8K)5NH2) was >512 µg/mL, the “Antibiotic MIC, None” value (E. coli 14182; antibiotic alone (Table 15)) was >512 µg/mL and the “Antibiotic MIC” value (E. coli 14182; no polymer (None), Table 14) was >512 µg/mL. For the same compound, the “Antibiotic MIC in presence of C12K(NC8K)7NH2 (SEQ ID NO: 4), +¼ MIC” value (E. coli 14182; polymer at ¼ of its MIC) was >512 µg/mL, the “Antibiotic MIC in presence of C12K(NC8K)7NH2 (SEQ ID NO: 4), +½ MIC” value (“Antibiotic MIC … (SEQ ID NO: 4), +½ MIC” for short) (E. coli 14182) was >512 µg/mL and the “Antibiotic MIC in presence of C12K(NC8K)7NH2 (SEQ ID NO: 4), +⅓ MIC” value (E. coli 14182; polymer at ⅓ of its MIC) was >512 µg/mL. For the same compound, the “Antibiotic MIC” value (MRSA 15852; +¼ MIC (1.6 μM) C12KKNC12KNH2) was 256 µg/mL, the “Antibiotic MIC” value (MRSA 15852; +½ MIC (3.12 μM) C12KKNC12KNH2) was 256 µg/mL and the “Antibiotic MIC” value (MRSA 15852; +⅓ MIC (2.1 μM) C12KKNC12KNH2) was 256 µg/mL. For the same compound, the “Antibiotic MIC” value (MRSA 15852; no polymer (None), Table 11) was 256 µg/mL, the “Antibiotic MIC, None” value (E. coli AG100; antibiotic alone (Table 20)) was 512 µg/mL and the “Antibiotic MIC, None” value (E. coli AG100; antibiotic alone (Table 21)) was 512 µg/mL. The “Antibiotic MIC in presence of C12K(NC8K)5NH2 (SEQ ID NO: 3), +¼ MIC” value (E. coli AG100; polymer at ¼ of its MIC) was 256 µg/mL, the “Antibiotic MIC in presence of C12K(NC8K)5NH2 (SEQ ID NO: 3), +½ MIC” value (E. coli AG100; polymer at ½ of its MIC) was 32 to 64 µg/mL and the “Antibiotic MIC … (SEQ ID NO: 4), +½ MIC” value (E. coli AG100; polymer at ½ of its MIC) was 32 to 64 µg/mL. For the same compound, the “reduction of bacterial counts compared to the most active single agent” value (MRSA 15903; 24 hours, oxacillin 0.78 μM + NC12(KNC12K)2NH2 2.1 μM) was 4.7 log10 CFU/ml, the “surviving organisms below the starting inoculum” value (MRSA 15903; oxacillin 0.78 μM + NC12(KNC12K)2NH2 2.1 μM) was 0.76 log10 CFU/ml and the “bactericidal activity, agent alone” value (MRSA 15903; sub-MIC time-kill, single agent) was “no bactericidal activity”. For the same compound, the “Antibiotic MIC, None” value (E. coli AG100/ks; antibiotic alone (Table 20)) was >512 µg/mL, the “Antibiotic MIC, None” value (E. coli AG100/ks; antibiotic alone (Table 21)) was >512 µg/mL and the “Antibiotic MIC in presence of C12K(NC8K)5NH2 (SEQ ID NO: 3), +¼ MIC” value (E. coli AG100/ks; polymer at ¼ of its MIC) was >512 µg/mL. For the same compound, the “Antibiotic MIC in presence of C12K(NC8K)7NH2 (SEQ ID NO: 4), +¼ MIC” value (E. coli AG100/ks; polymer at ¼ of its MIC) was >512 µg/mL, the “Antibiotic MIC in presence of C12K(NC8K)5NH2 (SEQ ID NO: 3), +½ MIC” value (E. coli AG100/ks; polymer at ½ of its MIC) was >512 µg/mL and the “Antibiotic MIC … (SEQ ID NO: 4), +½ MIC” value (E. coli AG100/ks; polymer at ½ of its MIC) was >512 µg/mL. The “Antibiotic MIC in presence of C12K(NC8K)5NH2 (SEQ ID NO: 3), +⅓ MIC” value (E. coli AG100/ks; polymer at ⅓ of its MIC) was >512 µg/mL, the “Antibiotic MIC in presence of C12K(NC8K)7NH2 (SEQ ID NO: 4), +⅓ MIC” value (E. coli AG100/ks; polymer at ⅓ of its MIC) was >512 µg/mL and the “Antibiotic MIC” value (S. aureus 43300; [7]) was 0.25 to 0.5 µg/mL. For the same compound, the “Antibiotic MIC” value (S. aureus 43300; +½ MIC (3.12 μM) C12(5-ene)KKNC12KNH2) was 0.06 µg/mL, the “Antibiotic MIC” value (S. aureus 43300; [8]) was 0.25 µg/mL and the “Antibiotic MIC” value (S. aureus 43300; [9]) was 0.25 µg/mL. The “Antibiotic MIC” value (S. aureus 43300; no polymer (None), Table 8) was 0.5 to 1 µg/mL, the “Antibiotic MIC” value (S. aureus 43300; no polymer (None), Table 9) was 0.5 µg/mL and the “Antibiotic MIC” value (S. aureus 43300; no polymer (None), Table 10) was 0.5 to 1 µg/mL. The “Antibiotic MIC” value (S. aureus 43300; no polymer (None), Table 11) was 0.5 µg/mL and the “Antibiotic MIC” value (S. aureus 43300; no polymer (None), Table 12) was 0.5 µg/mL.

With gentamicin the “Antibiotic MIC” value (S. aureus 17314; [3]) was 64 µg/mL, the “Antibiotic MIC” value (P. mirabilis 1285 [1]; +¼ MIC (1.6 μM) C12K(KNC12K)2NH2) was 32 µg/mL and the “Antibiotic MIC” value (P. mirabilis 1285 [1]; +½ MIC (3.12 μM) C12K(KNC12K)2NH2) was 32 µg/mL. The “Antibiotic MIC” value (P. mirabilis 1285 [1]; +⅓ MIC (2.1 μM) C12K(KNC12K)2NH2) was 32 µg/mL, the “Antibiotic MIC” value (P. aeruginosa 8732; P. aeruginosa 8732, +¼ MIC (1.6 μM) C16(9-ene)KKNC12KNH2) was 4 µg/mL and the “Antibiotic MIC” value (P. aeruginosa 8732; [4]) was 4 µg/mL. The “Antibiotic MIC” value (P. aeruginosa 8732; [5]) was 4 µg/mL, the “Antibiotic MIC” value (P. aeruginosa 8732; [6]) was 4 µg/mL and the “Antibiotic MIC … (SEQ ID NO: 4), +½ MIC” value (E. coli 14182) was 64 to 128 µg/mL. For the same compound, the “Antibiotic MIC” value (P. mirabilis 1285 [2]) was 32 µg/mL, the “Antibiotic MIC” value (S. aureus 43300; [7]) was 64 to 128 µg/mL and the “Antibiotic MIC” value (S. aureus 43300; [8]) was 64 to 128 µg/mL. The “Antibiotic MIC” value (S. aureus 43300; [9]) was 64 to 128 µg/mL, the “Antibiotic MIC” value (S. aureus 43300; no polymer (None), Table 9) was 64 to 128 µg/mL and the “Antibiotic MIC” value (S. aureus 43300; no polymer (None), Table 10) was 64 µg/mL.
